According to patent publication US6191113A, “Peptide for inhibiting growth of smooth muscle cells” (Juridical Foundation The Chemo-Sero-Therapeutic Research …, priority 1995, dated 2001):

Columns and labels:
[1] = tested on: Vascular smooth muscle cells from human aorta; assay: Growth inhibition of smooth muscle cells by full-length TFPI or TFPI lacking the C-terminal region (cell count, DME); assay type: cell-based; conditions: 50 μg/ml in DME, counted nine days after plating, 3 wells, Student's t-test
Description: Vascular smooth muscle cells from human aorta (purchased from Kurabo K.K.) were used and subjected to passage culture with Dulbecco modified Eagle medium (hereinafter referred to as "DME") supplemented with 10% fetal calf serum. The smooth muscle cells with six passages were used in the following experiment.
The smooth muscle cells suspended in DME were plated on a 48 well culture plate (manufactured by Iwaki Glass K.K.) at a cell density of 5,000 cells/well and incubated in CO2 incubator at 37° C. Two days after plating, the culture medium was exchanged with DME containing 50 μg/ml of full-length TFPI or 50 μg/ml of TFPI lacking the C-terminal region or with DME alone as a control and culture was continued in CO2 incubator at 37° C. while the culture medium was exchanged with a fresh medium on every 2 days. The culture medium was used at 0.3 ml/well. Nine days after plating, the cells attached to the plate were detached by treatment with a trypsin/EDTA solution and then a cell number per well was counted with a hemocytometer. FIG. 1 is a graph showing a mean cell number as well as a standard deviation for three wells in each group.

smooth muscle cells = assay: Cellular toxicity with Cytotox 96 kit; assay type: cell-based, human; conditions: Cytotox 96 kit (Promega)

## full-length TFPI: intact human tissue factor pathway inhibitor purified from culture supernatant of Chinese hamster ovary cell line
[1]
  activity to inhibit growth of smooth muscle cells (cell number per well vs control): significantly decreased cell number
Smooth muscle cells
  cellular toxicity: did not exhibit cellular toxicity
